Like-named read-outs stand apart in the source and are kept apart here. Ends that are not written are not given here.
B1: Renin (protein, UniProt P00797 67-406, looked up)
Renin: LTLGNTTSSVILTNYMDTQYYGEIGIGTPPQTFKVVFDTGSSNVWVPSSKCSRLYTACVYHKLFDASDSSSYKHNGTELTLRYSTGTVSGFLSQDIITVGGITVTQMFGEVTEMPALPFMLAEFDGVVGMGFIEQAIGRVTPIFDNIISQGVLKEDVFSFYYNRDSENSQSLGGQIVLGGSDPQHYEGNFHYINLIKTGVWQIQMKGVSVGSSTLLCEDGCLALVDTGASYISGSTSSIEKLMEALGAKKRLFDYVVKCNEGPTLPDISFHLGGKEYTLTSADYVFQESYSSKKLCTLAIHAMDIPPPTGPTWALGATFIRKFYTEFDRRNNRIGFALAR

Key:
(Na^+ +K^+)ATPase [1] = biological target: T1, (Na^+ +K^+)ATPase (Canis lupus familiaris, UniProt P50997); test: Competition for ^3 H-ouabain binding to purified (Na^+ +K^+)ATPase; set-up: species or system dog; conditions: type II conditions
T1 construct: (Na^+ +K^+)ATPase was purified from the outer medulla of dog kidney; from tissue; host or cells: dog kidney outer medulla, purified membrane enzyme
Protocol: (§1) More specifically, (Na^+ +K^+)ATPase was purified from the outer medulla of dog kidney using the angle rotor procedure (Jorgensen, P.L., Biochim. Biophys. Acta, 356:36-52 (1974)) and stored frozen at -60° C. at 1.0 mg/ml in 25 mM imidazole-HCl (pH 7.5) and 1.0 mM EDTA, in small aliquots. (Na^+ +K^+)ATPase activity was determined at 37° C. from rate measurements in 1.0 ml of coupled optical assay mixture comprising 20 mM KCl, 100 mM NaCl, 4.5 mM MgSO4, 5.0 mM EGTA, 3.0 mM ATP-Na2, 1.2 mM phosphoenol-pyruvate-tricyclohexylammonium, 0.3 mM NADH, 100 mM TES-Tris (ph 7.4), 5.0 units of lactate dehydrogenase, and 5.0 units of pyruvate kinase (Hamlyn, J.M. et al, Nature, 300:650-652 (1982)). (Na^+ +K^+)ATPase activity was 99% ouabain-inhibitable with activities of 10-18 μmol/min/mg of membrane protein. Maximally effective concentrations of digitalis-like activity had no effect on the enzymatic components of the coupled optical assay as determined by inspection of rates in response to addition of 20-50 μM ADP. The maximal capacity of the coupled optical assay was at least 500-2000 fold greater than the typical maximal hydrolytic rate of the (Na^+ +K^+)ATPase and was not rate limiting under any assay condition described herein.
Competition for ^3 H-ouabain (Amersham Corp. or DuPont-New England Nuclear) binding was carried out in 670 μl of binding buffer comprising, in final concentrations, 10 mM TES-Tris (pH 7.4), 0.5 mM EDTA, 5.0 mM MgCl2 and 5.0 mM Na2 HPO4 (hereinafter "binding buffer") and 50 nM ouabain containing ^3 H-ouabain tracer, and including the unknown sample. Binding was initiated by addition of 0.1-2 μg of purified (Na^+ +K^+)ATPase and the reaction performed for 2 hr at 37° C. […] Trapped ^3 H-ouabain was determined by scintillation counting, following 12 hr of soaking the filters in 4.0 ml of Beckman Ready Protein ™ scintillation cocktail (Beckman, Palo Alto, Calif.). […] All binding data were corrected for quench, and specific binding was expressed as pmol/mg of enzyme protein. […]

[2] = test system: polyclonal anti-ouabain antisera; type: binding, rabbit
Protocol: Polyclonal anti-ouabain antisera was obtained from the immunized rabbits by collecting blood from the central ear artery, allowing the blood to clot for 2 hr at room temperature, centrifuging the clotted blood at 1000 ×g for 10 min, and removing the polyclonal anti-ouabain antisera.
The polyclonal antisera was extensively characterized by testing the degree to which it cross-reacted with (1) other substances known to be present in human body fluids and tissues, and (2) cardiotonic steroids closely related to ouabain but not known to be present in human body fluids and tissues.

[3] = test system: left atria from guinea pigs; test: Inotropic properties in left atria from guinea pigs; set-up: species or system guinea pig
Protocol: Atria were incubated at 37° C. in phosphate buffered saline comprising 130 mM NaCl, 5.4 mM KCl, 1.8 mM MgCl2, 0.4 mM NaH2 PO4, 19 mM NaHCO3 and 5.4 g of glucose (pH 7.3-7.4), and gassed with 95% O2 /5% CO2. Tissues were stimulated at 1 Hz with twice threshold square pulses (0.8 to 1.0 V) of 0.7 to 1.2 msec duration. Resting tension was optimized for maximum isometric force generation. Control records were obtained once the phasic force was stabilized. […] For comparison, 200 nM plant ouabain evoked an inotropic response of 311±41% (N=4 experiments) which returned to normal with a half-time of approximately 5 min upon washout.

[4] = test system: rings of aorta from guinea pigs; test: Vasoactive properties in rings of aorta from guinea pigs; set-up: species or system guinea pig
Protocol: The aortic rings were incubated at 37° C. in phosphate buffered saline. The rings were submaximally contracted for 3 to 7 min, every 35 min, with 0.2 or 1.0 μM histamine. […] The apparent half-time for washout of the augmented tension response in the presence of plant ouabain was also much greater than 60 min.

(Na^+ +K^+)ATPase [5] = biological target: T1, (Na^+ +K^+)ATPase; test: Inhibition of (Na^+ +K^+)ATPase activity (coupled optical assay); type: biochemical, dog; conditions: purified dog kidney enzyme, 37° C.
Protocol: as §1
The inhibition of (Na^+ +K^+)ATPase was carried out as described above.

[6] = Table 1, polyclonal anti-ouabain antisera

Molecule | cross-reactivity (relative to ouabain) [2, 6] | other results
C[C@@H]1O[C@@H](O[C@H]2C[C@@H](O)[C@]3(CO)[C@H]4[C@H](O)C[C@]5(C)[C@@H](C6=CC(=O)OC6)CC[C@]5(O)[C@@H]4CC[C@]3(O)C2)[C@H](O)[C@H](O)[C@H]1O [^3 H-ouabain] | – | ^3 H-ouabain bound (typical values) ((Na^+ +K^+)ATPase [1]): 75-85 pmol/mg of enzyme protein
CC(C)CCC[C@@H](C)[C@H]1CC[C@H]2[C@@H]3CC=C4C[C@@H](O)CC[C@]4(C)[C@H]3CC[C@]12C [Cholesterol] | None detected | –
C[C@]12CC[C@H]3[C@@H](CC[C@]4(O)C[C@@H](O)CC[C@]34C=O)[C@@]1(O)CC[C@@H]2C1=CC(=O)OC1 [Strophanthidin] | 66% | –
C[C@]12C[C@@H](O)[C@H]3[C@@H](CC[C@]4(O)C[C@@H](O)C[C@@H](O)[C@]34CO)[C@@]1(O)CC[C@@H]2C1=CC(=O)OC1 [Ouabagenin] | 40% | –
C[C@H]1O[C@@H](O[C@H]2[C@@H](O)C[C@H](O[C@H]3[C@@H](O)C[C@H](O[C@H]4CC[C@@]5(C)[C@H](CC[C@@H]6[C@@H]5C[C@@H](O)[C@]5(C)[C@@H](C7=CC(=O)OC7)CC[C@]65O)C4)O[C@@H]3C)O[C@@H]2C)C[C@H](O)[C@@H]1O [Digoxin] | 5.2% | –
O=C(O)CC(O)(CC(=O)O)C(=O)O [Citrate] | None detected | –
Angiotensin I (DRVYIHPFHL; Angiotensin-1; UniProt P01019 25-34, looked up) | None detected | –
C[C@]12CCC(=O)C=C1CC[C@@H]1[C@@H]2[C@@H](O)C[C@]2(C=O)[C@@H](C(=O)CO)CC[C@@H]12 [Aldosterone] | 0.012% | –
C[C@]12CC[C@H]3[C@@H](CCC4=CC(=O)CC[C@@]43C)[C@@H]1CC[C@@H]2C(=O)CO [Deoxycorticosterone] | 0.0046% | –
Atrial natriuretic peptide (SLRRSSCFGGRMDRIGAQSGLGCNSFRY; ends and bridges not checked; cysteine pairing not given here; UniProt P01160 124-151, looked up) | None detected | –
C[C@]12CC[C@H]3[C@@H](CCC4=CC(=O)CC[C@@]43C)[C@@H]1CC[C@@H]2O [Testosterone] | – | cross-reactivity (relative to ouabain) ([2]; Table 1, printed without unit): 0.0042
C[C@@H]1O[C@@H](O[C@H]2C[C@@H](O)[C@]3(CO)[C@H]4[C@H](O)C[C@]5(C)[C@@H](C6COC(=O)C6)CC[C@]5(O)[C@@H]4CC[C@]3(O)C2)[C@H](O)[C@H](O)[C@H]1O (stereo partly drawn) [Dihydroouabain] | 0.16% | –
CC(=O)[C@H]1CC[C@H]2[C@@H]3CCC4=CC(=O)CC[C@]4(C)[C@H]3CC[C@]12C [Progesterone] | 0.0011% | –
C[C@]12CC[C@@H]3c4ccc(O)cc4CC[C@H]3[C@@H]1CC[C@@H]2O [β-estradiol] | None detected | –
C[C@H]1O[C@@H](O[C@H]2[C@@H](O)C[C@H](O[C@H]3[C@@H](O)C[C@H](O[C@H]4CC[C@@]5(C)[C@H](CC[C@@H]6[C@@H]5CC[C@]5(C)[C@@H](C7=CC(=O)OC7)CC[C@]65O)C4)O[C@@H]3C)O[C@@H]2C)C[C@H](O)[C@@H]1O [Digitoxin] | 28% | –
C[C@]12C[C@H](O)[C@H]3[C@@H](CCC4=CC(=O)CC[C@@]43C)[C@@H]1CC[C@@H]2C(=O)CO [Corticosterone] | 0.0035% | –
C[C@@H]1O[C@@H](O[C@H]2C[C@@H](O)[C@]3(CO)[C@H]4[C@H](O)C[C@]5(C)[C@@H](C6=CC(=O)OC6)CC[C@]5(O)[C@@H]4CC[C@]3(O)C2)[C@H](O)[C@H](O)[C@H]1O [ouabain] | – | activation at 0.2 µM ([3]; Cavia porcellus, read-out: inotropic response): 311 ± 41%; apparent half-time for washout of the inotropic response ([3]; upon washout): approximately 5 min; effect on baseline tension ([4]; 170 nM human ouabain, 200 nM plant ouabain): did not affect baseline tension; activity at 0.2 µM ([4]; Cavia porcellus, read-out: histamine-evoked tension, % of control): 146 ± 16%; apparent half-time for washout of the augmented tension response ([4]; upon washout): greater than 60 min; (Na^+ +K^+)ATPase activity ouabain-inhibitable ((Na^+ +K^+)ATPase [5]): 99%
Angiotensin II | None detected | –
CC(=O)O[C@H]1C[C@H](O[C@H]2[C@@H](O)C[C@H](O[C@H]3[C@@H](O)C[C@H](O[C@H]4CC[C@@]5(C)[C@H](CC[C@@H]6[C@@H]5C[C@@H](O)[C@]5(C)[C@@H](C7=CC(=O)OC7)CC[C@]65O)C4)O[C@@H]3C)O[C@@H]2C)O[C@H](C)[C@H]1O[C@@H]1O[C@H](CO)[C@@H](O)[C@H](O)[C@H]1O [Lanatoside C] | 2.49% | –
C[C@]12CCC(=O)C=C1CC[C@@H]1[C@@H]2[C@@H](O)C[C@@]2(C)[C@H]1CC[C@]2(O)C(=O)CO [Hydrocortisone] | None detected | –
C[C@]12CC[C@H](OS(=O)(=O)O)CC1=CC[C@@H]1[C@@H]2CC[C@]2(C)C(=O)CC[C@@H]12 [Dehydroisoandrosterone-3-sulfate] | None detected | –
CC(=O)O[C@]1(C(C)=O)CC[C@H]2[C@@H]3C=C(Cl)C4=CC(=O)CC[C@]4(C)[C@H]3CC[C@@]21C [Chlormadinone acetate] | None detected | –
C[C@]12CC[C@H](O)CC1=CC[C@@H]1[C@@H]2CC[C@]2(C)C(=O)CC[C@@H]12 [Dehydroisoandrosterone] | None detected | –
NC(=O)CC[C@@H]1NC(=O)[C@H](Cc2ccccc2)NC(=O)[C@H](Cc2ccc(O)cc2)NC(=O)[C@@H](N)CSSC[C@@H](C(=O)N2CCC[C@H]2C(=O)N[C@@H](CCCN=C(N)N)C(=O)NCC(N)=O)NC(=O)[C@H](CC(N)=O)NC1=O [Arginine vasopressin] | None detected | –
B1 | None detected | –
